# Test results published in patent US20040018528A1, “Novel biomarkers of tyrosine kinase inhibitor exposure and activity in mammals” (Sugen, Inc., priority 2002, published 2004).
# “And” between values parts separate entries of the source, which are not always exact repeats. Equal values may be shown once.
# Columns and labels:
# Format in all cases: in vivo, human
# [1] = system: RNA transcripts in patient whole blood; test: Affymetrix DNA array and TaqMan qRT-PCR of whole blood RNA of patients given Compound A; settings: Affymetrix GeneChip
# Description: TRI Reagent® BD—RNA, DNA, protein isolation reagent was used according to the manufacturer's protocol, Molecular Research Center, Inc. (Cincinnati, Ohio) <www.mrcgene.com>.
# Images were scanned with a Hewlett-Packard GeneArray scanner.
# To determine the fold change, the AD of the post-treatment sample was divided by the AD of the pre-dose samples.
# All probes contained a reporter dye (FAM) and a dye quencher (MGB). QRT-PCR was performed using 20 ng of total RNA with TaqMan® One-Step RT-PCR Master Mix Reagents Kit (Applied Biosystems) following the manufacturer's protocol. […] VEGF (Genbank accession number AF022375) transcripts were amplified using forward primer […] (SEQ ID NO: 165), reverse primer […] (SEQ ID NO: 166), and probe […] (SEQ ID NO: 167) to generate an 82-bp amplicon product. Vinculin (Genbank accession number M33308) transcripts were amplified using forward primer […] (SEQ ID NO: 168), reverse primer […] (SEQ ID NO: 169), and probe […] (SEQ ID NO: 170) to generate a 124-bp amplicon product. PECAM-1 (Genbank accession number L34657) transcripts were amplified using forward primer […] (SEQ ID NO: 171), reverse primer […] (SEQ ID NO: 172), and probe […] (SEQ ID NO: 173) to generate a 56-bp amplicon product. MAPK Kinase 3 (Genbank accession number L36719) transcripts were amplified using forward primer […] (SEQ ID NO: 174), reverse primer […] (SEQ ID NO: 175), and probe […] (SEQ ID NO: 176) to generate a 77-bp amplicon product. Hemoglobin, epsilon 1 (Genbank accession number AI349593) transcripts were amplified using forward primer […] (SEQ ID NO: 177), reverse primer […] (SEQ ID NO: 178), and probe […] (SEQ ID NO: 179) to generate a 66-bp amplicon product. GAPDH and 18S were ordered as pre-developed assay reagents (PDARs) from Applied Biosystems and used as endogenous controls.
# Where ΔΔCt=(Cttarget−Ctcontrol)post-dose−(Cttarget−Ctcontrol)pre-dose.
# VEGF = test: ELISA of VEGF in plasma of patients given Compound A; settings: cancer patients; 24 hours after first dose vs before; dosed twice over 24 hours
# Description: (§1) (Minneapolis, Minn.). Human plasminogen activator inhibitor-1 (PAI-1) and human tissue factor (TF) ELISA kits were obtained from American Diagnostica, Inc. (Greenwich, Conn.). All ELISAs were performed on plasma samples according to the manufacturers' instructions.
# PAI-1 [2] = test: ELISA of PAI-1 in plasma of patients given Compound A; settings: cancer patients; 24 hours after first dose vs before; dosed twice over 24 hours
# Description: as §1
# TIMP-1 = test: ELISA of TIMP-1 in plasma of patients given Compound A; settings: cancer patients; 24 hours after first dose vs before; dosed twice over 24 hours
# Description: as §1
# PAI-1 [3] = test: PAI-1 plasma levels in Compound B trial patients; settings: after 56 days of treatment
# PBMC = test: Affymetrix microarray expression profiling of PBMC, Compound B Trial A; settings: PBMC day 56 vs day 1
# Description: Patient samples were derived from 2 randomized, open-label, multicenter Phase III clinical trials comparing standard of care chemotherapy alone or combined with Compound B in patients with metastatic colorectal cancer. In both trials Compound B was delivered twice weekly at a dose of 145 mg/m^2 via I.V. infusion. In the first trial (designated Trial A), the standard of care chemotherapy consisted of weekly administration of 5-FU and leucovorin (Rosewell Park regimen); in the second trial (designated Trial B), the standard of care chemotherapy consisted of weekly or bi-weekly administration of 5-FU, leucovorin and Irinotecan (CPT-11). A total of 23 patient sample pairs were included in Affymetrix microarray expression profiling analysis, 2 females and 9 males in the Compound B treatment arm, and 2 females and 10 males in the control arm. The median patient age was 66 and 65 years for the Compound B treatment arm and control arm, respectively. For RT-verification experiments, samples from 12 females and 24 males from the Compound B treatment arm, and 14 females and 17 males from the control arm were used. The median age for these patients was 62 and 60 years, respectively. Clinical response criteria were defined according to RECIST guidelines.
# All blood samples were collected into Vacutainer tubes containing sodium heparin. Ten 10 ml of blood was withdrawn from patients prior to receiving any treatment on day 1 and also prior to dosing at end of cycle 1 (day 56 in Trial A; day 42 in Trial B). For peripheral blood mononuclear cell (PBMC) preparations, blood samples were shipped overnight at ambient temperature to a central processing facility (Quest Diagnostics, Inc., Collegeville, Pa., USA) for PBMC isolation via Ficoll gradient method. Purified PBMCs were shipped in RNA lysis buffer (Clontech, Palo Alto, Calif., USA) to SUGEN where isolation of total RNA was performed. For Trial B, whole peripheral blood samples were directly frozen at the clinical sites and shipped on dry ice to SUGEN for RNA isolation.
# Total RNA was purified from PBMC samples using Clontech Nucleospin RNA II kit reagents (Clontech, Palo Alto, Calif.) and from whole blood samples using MRC TRI Reagent BD (Molecular Research Center, Cincinnati, Ohio, USA), an adaptation of the Chomczynski single step method, according to the manufacturer's instructions. All sample preparations included a treatment with RNAse-free DNAse. RNA yields were measured by UV absorbance and RNA quality was assessed by agarose gel electrophoresis with ethidium bromide staining for visualization of ribosomal RNA band integrity.
# In these experiments, equal amounts of starting material were used for pre- and post-treatment samples from each donor (typically 2 μg). Briefly, the protocol was as follows: double-stranded cDNA was synthesized from total RNA (2 μg), with Invitrogen Life Technologies SuperScript Choice system reagents (Invitrogen, Carlsbad, Calif.). The T7-(dT)24 oligomer was used for priming first-strand cDNA synthesis. Double-stranded cDNA product was purified via phenol-chloroform extraction, then used as template in first round of in vitro transcription (IVT) of cRNA. […] The cRNA product was then purified with Qiagen spin column clean-up protocol and used as template in second round of cDNA synthesis. This second round of synthesis was similar to the first round except that random hexamers were used in priming of first-strand synthesis, with T7-(dT)24 oligomer priming the second-strand. Purification of the cDNA was as in the first round. The second round of IVT of cRNA was as in the first round but with biotinylated ribonucleotides rather than non-biotinylated ribonucleotides. Purified cRNA was quantitated, chemically fragmented according to Affymetrix protocol, and then hybridized overnight on Human Genome U95A Arrays (which contain probe sets for the detection of approximately 12,600 transcripts). […]
# PBMC and whole blood RNA = test: SYBR Green quantitative RT-PCR of PBMC / whole blood RNA, Compound B Trials A and B; settings: end of one treatment cycle relative to baseline, two Phase III trials
# Description: Primers were designed with Primer Express 1.5 software (Applied Biosystems). In all cases, primers were designed to bind within the sequence that was used in Affymetrix probe set designs (target sequence information available on Affymterix NetAffx website). Total RNA samples (1 μg) were reverse transcribed to yield first-strand cDNA using the Applied Biosystems Reverse Transcription Reagents protocol (Applied Biosystems, Foster City, Calif.). The reverse transcription reactions were then diluted 1:5 in distilled H2O. […] For individual reactions, 10 μl of each sample were combined with 15 μl of SYBR Green PCR Master Mix (Applied Biosystems) containing the appropriate primer pair at 350 nM. Data was extracted and amplification plots generated with ABI SDS software. […]
# The relative expression data for a select subset of potential biomarkers were tested for differences between the Compound B (treatment) and the standard of care (control) arms. […] Results from three different cross-validations were evaluated to select the best set of predictable biomarkers: (1) jackknife method (dropping one case at a time); (2) randomly splitting the pooled data into two halves, prediction (for building model) and validation (for testing model); and (3) using the first trial as prediction and the later trial as validation sets, respectively. […]
# MIG [4] = test: MIG plasma ELISA, Compound 1 Phase I trials; settings: Trial C patients, FIG. 17
# I-TAC = I-TAC plasma ELISA, Compound 1 Phase I trials; settings: individual patients
# Description: (§2) In Trials A and B, patients received Compound 1.
# (§3) Data analysis was performed for each marker.
# VEGF/PLGF heterodimers = test: Hybrid ELISA for VEGF/PLGF heterodimers in patient plasma; settings: Trial C
# Excerpt: Heterodimers of VEGF and PLGF have been reported in the scientific literature. To measure heterodimers, a hybrid ELISA assay was used, combining reagents from both the R&D Systems VEGF and PLGF ELISA kits (where VEGF antibodies are used in capture step and PLGF antibodies are used in detection step).
# MIG [5] = test: MIG plasma ELISA, Compound 1 Phase I trials; settings: individual patients
# Description: as §2, §3
# IP-10 = IP-10 plasma ELISA, Compound 1 Phase I trials; settings: individual patients; >500 = above highest standard
# Description: as §2, §3
# [6] = advanced solid malignancies, 24 hours after first dose vs before
# [7] = patients with Increase call, Trial A, with 5-FU/leucovorin
smiles,measurement,setting,value
"Cc1[nH]c(/C=C2\C(=O)Nc3ccccc32)c(C)c1CCC(=O)O [Compound A, 3-[2,4-dimethyl-5-(2-oxo-1,2-dihydro-indol-3-ylidenemethyl)-1H-pyrrol-3-yl]-propionic acid]",level of VEGF RNA in whole blood,[1]; [6],increase
same,level of vinculin RNA in whole blood,[1]; [6],increase
same,levels of 26 RNA transcripts in patient blood,"[1]; day 28 vs day 0, dosed about 2 times per day",increased and/or decreased
same,level of VEGF in plasma,VEGF,increased
same,level of PAI-1 in plasma,PAI-1 [2],increased
same,level of TIMP-1 in plasma,TIMP-1,increased
"Cc1cc(C)c(/C=C2\C(=O)Nc3ccccc32)[nH]1 [Compound B, 3-(3,5-dimethyl-1H-pyrrol-2-ylmethylene)-1,3-dihdyro-indol-2-one]","median PAI-1 plasma level, day 56",PAI-1 [3]; patients with MR (minor response) at end of cycle 1,23.93 ng/mL
same,"median PAI-1 plasma level, day 56",PAI-1 [3]; patients with PD (progressive disease) at end of cycle 1,34.8 ng/mL
same,average fold change of lactoferrin transcript,"PBMC; Compound B (SU5416) arm, highest of the 13 transcripts",33
same,average fold change of hypothetical protein FLJ13052 transcript,"PBMC; Compound B (SU5416) arm, lowest of the 13 transcripts",2.6
same,Increased in SU5416 arm: Antileukoprotease transcript,PBMC; [7],9 of 11
same,Increased in SU5416 arm: BPI transcript,PBMC; [7],9 of 11
same,Increased in SU5416 arm: CD24 antigen transcript,PBMC; [7],9 of 11
same,Increased in SU5416 arm: CEA CAM 8 transcript,PBMC; [7],9 of 11
same,Increased in SU5416 arm: Defensin α 3 transcript,PBMC; [7],10 of 11
same,Increased in SU5416 arm: Defensin α 4 transcript,PBMC; [7],10 of 11
same,Increased in SU5416 arm: Hypothetic. Protein FLJ13052 transcript,PBMC; [7],7 of 11
same,Increased in SU5416 arm: Lactoferrin transcript,PBMC; [7],11 of 11
same,Increased in SU5416 arm: Lipocalin 2 transcript,PBMC; [7],10 of 11
same,Increased in SU5416 arm: Liver arginase transcript,PBMC; [7],9 of 11
same,Increased in SU5416 arm: MMP-9 transcript,PBMC; [7],8 of 11
same,Increased in SU5416 arm: S100 P transcript,PBMC; [7],9 of 11
same,Increased in SU5416 arm: Thrombospondin 1 transcript,PBMC; [7],9 of 11
same,number of the 13 genes showing induction in each case,PBMC; all cases of the Compound B arm,at least 6
same,"expression of CD24, lactoferrin, LCN2 and MMP-9 transcripts",PBMC and whole blood RNA,significantly induced
"CCN(CC)CCNC(=O)c1c(C)[nH]c(C=C2C(=O)Nc3ccc(F)cc32)c1C.O=C(O)C[C@H](O)C(=O)O [malate salt of Compound 1, L-malate salt of 5-(5-fluoro-2-oxo-1,2-dihydroindol-3-ylidenemethyl)-2,4-dimethyl-1H-pyrrole-3-carboxylic acid(2-diethylaminoethyl)amide]",chemokine MIG plasma level during treatment,MIG [4],induced
same,"I-TAC plasma level, day 15",I-TAC; cycle 1,2020.2
same,"I-TAC plasma level, end C1 dosing",I-TAC; in pg/mL (unit assumed),771.04 and 701.46 and 315.69
same,patients tested with increase in plasma levels of VEGF/PLGF heterodimer,VEGF/PLGF heterodimers,3 of 3
same,"MIG plasma level, day 15",MIG [5]; cycle 1,339.16
same,"MIG plasma level, end C1 dosing",MIG [5]; in pg/mL (unit assumed),995.47 and 81.439 and 145.64 and 698.23 and 1066.2 and 344.93 and 907.09 and 314.2
same,"IP-10 plasma level, end C1 dosing",IP-10,>500 (4×) and 240.31 and 384.06
